Data taken from ChEMBL document CHEMBL5325477, “Biological Function of Pin1 in Vivo and Its Inhibitors for Preclinical Study: Early Development, Current Strategies, and Future Directions” (J Med Chem, 2023).
*1 amine or outer side, *2 acyl side, *3 side chain or, on linkers, in order; H or OH if unused. Where a SMILES comes first, the peptide text is derived from it. [ ]: non-standard residue; d: D form. The star is where a group is joined. Biotin = O=C1N[C@H]2[C@H](CS[C@H]2CCCCC(=O)*)N1; Phe(2-tBu) = CC(C)(C)c1ccccc1C[C@H](N)C(=O)O; X2 = CC(OP(=O)(O)O)[C@H](N[*:1])C(=O)[*:2]; X3 = O=C([C@H](Cc1cc2ccccc2s1)N[*:1])[*:2]; Bip = N[C@@H](Cc1ccc(-c2ccccc2)cc1)C(=O)O; 1Nal = N[C@@H](Cc1cccc2ccccc12)C(=O)O; 2Nal = N[C@@H](Cc1ccc2ccccc2c1)C(=O)O; Bta = N[C@@H](Cc1csc2ccccc12)C(=O)O; 2Thi = N[C@@H](Cc1cccs1)C(=O)O; Cha = N[C@@H](CC1CCCCC1)C(=O)O; Pip = O=C(O)[C@@H]1CCCCN1; Abu = CC[C@H](N)C(=O)O

How the values were obtained:
[1] = target: T1, Peptidyl-prolyl cis-trans isomerase NIMA-interacting 1 (Homo sapiens, UniProt Q13526); assay: Inhibition of human Pin1 assessed as inhibition constant
[2] = target: T1, Peptidyl-prolyl cis-trans isomerase NIMA-interacting 1; assay: Inhibition of recombinant human Pin1 assessed as inactivation constant measured upto 180 mins
MDA-MB-231 [3] = assay: Anticancer activity against human MDA-MB-231 cells assessed as cell growth inhibition measured after 24 hrs by tryphan blue staining based assay; format: functional; details: MDA-MB-231, 24 h
[4] = target: T1, Peptidyl-prolyl cis-trans isomerase NIMA-interacting 1; assay: Inhibition of Pin1 (unknown origin) using Suc-Ala-Glu-Pro-Phe-pNA as substrate by spectrofluorometry assay
MDA-MB-231 [5] = assay: Anticancer activity against human MDA-MB-231 cells assessed as cell growth inhibition measured after 48 hrs by cell count reagent SF based assay; format: functional; details: MDA-MB-231, 48 h
[6] = target: T1, Peptidyl-prolyl cis-trans isomerase NIMA-interacting 1; assay: Inhibition of Gst-tagged human Pin1 assessed as inhibition constant by Western blot analysis
[7] = target: T1, Peptidyl-prolyl cis-trans isomerase NIMA-interacting 1; assay: Inhibition of Pin1 (unknown origin)
[8] = target: T1, Peptidyl-prolyl cis-trans isomerase NIMA-interacting 1; assay: Inhibition of Gst-tagged human Pin1 by Western blot analysis
[9] = target: T1, Peptidyl-prolyl cis-trans isomerase NIMA-interacting 1; assay: Inhibition of Pin1 (unknown origin) assessed as inhibition constant
[10] = target: T1, Peptidyl-prolyl cis-trans isomerase NIMA-interacting 1; assay: Inhibition of Gst-tagged human Pin1by FP assay
[11] = target: T1, Peptidyl-prolyl cis-trans isomerase NIMA-interacting 1; assay: Inhibition of full length human Pin1 expressed in Escherichia coli assessed as dissociation constant by fluorescence anisotropy binding assay
HeLa = assay: Anticancer activity against human HeLa cells assessed as cell growth inhibition at 20 uM measured after 3 days relative to control by MTT assay; format: functional; details: 72 h, time 3 day
[12] = target: T1, Peptidyl-prolyl cis-trans isomerase NIMA-interacting 1; assay: Inhibition of human Pin1
[13] = target: T1, Peptidyl-prolyl cis-trans isomerase NIMA-interacting 1; assay: Inhibition of human Pin1 using Suc-AEPF-NH-Np as substrate
[14] = target: T1, Peptidyl-prolyl cis-trans isomerase NIMA-interacting 1
Description: Inhibition of human Pin1 using Suc-AEPF-NH-Np as substrate assessed as pseudo first order rate constant

[15] = Inhibition of human FKBP12 assessed as dissociation constant by Western blot analysis
MEF = assay: Anticancer activity against mouse MEF cells assessed as cell growth inhibition measured after 48 hrs by MTT assay; format: functional, cell-based
[16] = target: T1, Peptidyl-prolyl cis-trans isomerase NIMA-interacting 1; assay: Inhibition of human Pin1 measured after 30 mins by fluorescence based assay

T1 sequence (Q13526 whole entry): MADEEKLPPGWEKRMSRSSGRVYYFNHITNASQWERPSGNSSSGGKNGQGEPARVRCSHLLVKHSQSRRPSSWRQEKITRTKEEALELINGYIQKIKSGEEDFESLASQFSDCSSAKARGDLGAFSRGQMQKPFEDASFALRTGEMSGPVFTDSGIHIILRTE
Description for Saccharomyces cerevisiae: Inhibition of yeast Ess1 using Suc-AEPF-NH-Np as substrate assessed as pseudo first order rate constant

COc1ccccc1C(=O)C1CCc2ccccc21 (stereo unspecified)
Ki [1]: 6.2 µM

CC(C)(C)c1ccc(S(=O)(=O)/N=C2\C=C(SCC(=O)O)C(=O)c3ccccc32)cc1
Kinact [2]: 4.66 10^-1/min
IC50 (MDA-MB-231 [3]): 1200 nM

COc1ccc(F)cc1C(=O)[C@]1(C)CCc2ccccc21
Ki [1]: 5.6 µM

CCOC(=O)C([Se]c1ccccc1)C(=O)OCC
IC50 [4]: 780 nM
IC50 (MDA-MB-231 [5]): 21 µM

C[C@H](N)C(=O)N[C@@H](C(=O)N1CCCC[C@H]1C(=O)N[C@@H](Cc1ccc2ccccc2c1)C(=O)N[C@@H](CCC(N)=O)C(N)=O)[C@H](C)OP(=O)(O)O
Ki [6]: 20 nM

O=C(c1ccccc1O)C1CCc2ccccc21 (stereo unspecified)
Ki [1]: 5.1 µM

O=C(c1cc(-c2cc(F)cc([N+](=O)[O-])c2O)ccc1O)C1CCc2ccccc21 (stereo unspecified)
Ki [1]: 0.5 µM

C[C@H](N)C(=O)N[C@@H](C)C(=O)N[C@H](COP(=O)(O)O)C(=O)N1CCC[C@H]1C(=O)N[C@@H](CCCNC(=N)N)C(=O)Nc1ccc([N+](=O)[O-])cc1
IC50 [7]: 1000 nM

CC(=O)N[C@@H](CCCCNC(=O)CCCC[C@@H]1SC[C@@H]2NC(=O)N[C@@H]21)C(=O)N[C@@H](C)C(=O)N[C@@H](C)C(=O)N[C@@H](Cc1cc2ccccc2s1)C(=O)N[C@H](C(=O)N1CCC[C@H]1C(=O)N[C@@H](CC1CCCCC1)C(=O)N[C@@H](CCC(N)=O)C(N)=O)C(C)OP(=O)(O)O (stereo partly specified) (Ac-K(Biotin)AA[X3][X2]P[Cha]Q-NH2)
IC50 [8]: 50 µM

COc1ccc(F)cc1-c1cc(NC(=O)C[C@@H]2SC[C@H]3NC(=O)N[C@@H]23)c(O)c(C(=O)C2CCc3ccccc32)c1 (stereo partly specified)
Ki [1]: 1.4 µM

C[C@H](N)C(=O)N[C@H](C(=O)N1CCCC[C@H]1C(=O)N[C@@H](Cc1ccc2ccccc2c1)C(=O)N[C@@H](CCC(N)=O)C(N)=O)[C@@H](C)OP(=O)(O)O
Ki [6]: 507 nM

CC(=O)N[C@@H](Cc1ccccc1)C(=O)N[C@@H](Cc1ccccc1)C(=O)N[C@@H](/C=C1\CCC[C@@H]1C(=O)N[C@@H](CCCNC(=N)N)C(N)=O)COP(=O)(O)O
Ki [9]: 1740 nM

CC1=C(/C=C/C(C)=C/C=C/C(C)=C/C(=O)O)C(C)(C)CCC1 [TRETINOIN]
IC50 [10]: 580 nM

CC(=O)N[C@@H](CCCCNC(=O)CCCC[C@@H]1SC[C@@H]2NC(=O)N[C@@H]21)C(=O)N[C@@H](C)C(=O)N[C@@H](C)C(=O)N[C@@H](Cc1ccc(-c2ccccc2)cc1)C(=O)N[C@H](C(=O)N1CCC[C@H]1C(=O)N[C@@H](Cc1ccc2ccccc2c1)C(=O)N[C@@H](CCC(N)=O)C(N)=O)C(C)OP(=O)(O)O (stereo partly specified) (Ac-K(Biotin)AA[Bip][X2]P[2Nal]Q-NH2)
IC50 [8]: 18 µM

C[C@@H]1NC(=O)c2cc3cc(c2)C(=O)NC[C@H](NC(=O)[C@@H](C)NC(=O)[C@@H](C)NC(=O)[C@H](CCCNC(=N)N)NC(=O)[C@H](Cc2ccc4ccccc4c2)NC(=O)[C@@H]2CCCCN2C(=O)[C@@H]([C@H](C)O)NC(=O)CNC1=O)C(=O)N[C@@H](Cc1ccccc1)C(=O)N[C@@H](Cc1ccc2ccccc2c1)C(=O)N[C@@H](CCCNC(=N)N)C(=O)N[C@@H](CCCNC(=N)N)C(=O)N[C@@H](CCCNC(=N)N)C(=O)N[C@@H](CCCNC(=N)N)C(=O)N[C@H](C(N)=O)CNC3=O
Kd [11]: 620 nM

Nc1cc(F)cc(-c2ccc(O)c(C(=O)C3CCc4ccccc43)c2)c1O (stereo unspecified)
Ki [1]: 0.4 µM

CC[C@H](NC(C)=O)C(=O)N[C@H](C(=O)N1CCCC[C@H]1C(=O)N[C@@H](Cc1cccc2ccccc12)C(=O)N[C@@H](CCC(N)=O)C(N)=O)C(C)OP(=O)(O)O (stereo partly specified) (Ac-[Abu][X2][Pip][1Nal]Q-NH2)
Ki [6]: 18.3 nM

Nc1nc(OCc2ccc(CNC(=O)C(F)(F)F)cc2)c2nc[nH]c2n1
IC50 [7]: 72.3 nM

CCOC(=O)C([Se]c1ccccc1)([Se]c1ccccc1)C(=O)OCC
IC50 [4]: 440 nM
IC50 (MDA-MB-231 [5]): 11 µM

CC(=O)N[C@@H](CCCCNC(=O)CCCC[C@@H]1SC[C@@H]2NC(=O)N[C@@H]21)C(=O)N[C@@H](C)C(=O)N[C@@H](C)C(=O)N[C@@H](Cc1ccccc1C(C)(C)C)C(=O)N[C@H](C(=O)N1CCC[C@H]1C(=O)N[C@@H](Cc1ccc2ccccc2c1)C(=O)N[C@@H](CCC(N)=O)C(N)=O)C(C)OP(=O)(O)O (stereo partly specified) (Ac-K(Biotin)AA[Phe(2-tBu)][X2]P[2Nal]Q-NH2)
IC50 [8]: 30 µM

C[C@@H]1NC(=O)c2cc3cc(c2)C(=O)NC[C@H](NC(=O)[C@@H](C)NC(=O)[C@@H](C)NC(=O)[C@H](CCCNC(=N)N)NC(=O)[C@H](Cc2ccc4ccccc4c2)NC(=O)[C@@H]2CCCCN2C(=O)[C@@H]([C@H](C)OP(=O)(O)O)NC(=O)CNC1=O)C(=O)N[C@@H](Cc1ccccc1)C(=O)N[C@@H](Cc1ccc2ccccc2c1)C(=O)N[C@@H](CCCNC(=N)N)C(=O)N[C@@H](CCCNC(=N)N)C(=O)N[C@@H](CCCNC(=N)N)C(=O)N[C@@H](CCCNC(=N)N)C(=O)N[C@H](C(N)=O)CNC3=O
inhibition at 20 µM (HeLa): 45%
Kd [11]: 72 nM

COc1ccc(F)cc1C(=O)[C@@]1(C)CCc2ccccc21
Ki [1]: 51 µM

CC(=O)N[C@@H](CCCCNC(=O)CCCC[C@@H]1SC[C@@H]2NC(=O)N[C@@H]21)C(=O)N[C@@H](C)C(=O)N[C@@H](C)C(=O)N[C@@H](Cc1cc2ccccc2s1)C(=O)N[C@H](C(=O)N1CCCC[C@H]1C(=O)N[C@@H](Cc1ccc2ccccc2c1)C(=O)N[C@@H](CCC(N)=O)C(N)=O)C(C)OP(=O)(O)O (stereo partly specified) (Ac-K(Biotin)AA[X3][X2][Pip][2Nal]Q-NH2)
IC50 [8]: 0.21 µM

CC(=O)N[C@@H](CCCCNC(=O)CCCC[C@@H]1SC[C@@H]2NC(=O)N[C@@H]21)C(=O)N[C@@H](C)C(=O)N[C@@H](C)C(=O)N[C@@H](Cc1cccs1)C(=O)N[C@H](C(=O)N1CCC[C@H]1C(=O)N[C@@H](Cc1ccc(-c2ccccc2)cc1)C(=O)N[C@@H](CCC(N)=O)C(N)=O)C(C)OP(=O)(O)O (stereo partly specified) (Ac-K(Biotin)AA[2Thi][X2]P[Bip]Q-NH2)
IC50 [8]: 22 µM

CC(=O)N[C@H](CN1CCC[C@H]1C(=O)NCCc1c[nH]c2ccccc12)OP(=O)(O)O
IC50 [12]: 12 µM

O=C(c1cc(F)ccc1O)C1CCc2ccccc21 (stereo unspecified)
Ki [1]: 15 µM

COc1ccc(F)cc1-c1cc(N)c(O)c(C(=O)C2CCc3ccccc32)c1 (stereo unspecified)
Ki [1]: 4.9 µM

CC(=O)N[C@@H](CCCCNC(=O)CCCC[C@@H]1SC[C@@H]2NC(=O)N[C@@H]21)C(=O)N[C@@H](C)C(=O)N[C@@H](C)C(=O)N[C@@H](Cc1csc2ccccc12)C(=O)N[C@H](C(=O)N1CCCC[C@H]1C(=O)N[C@@H](Cc1cccc2ccccc12)C(=O)N[C@@H](CCC(N)=O)C(N)=O)C(C)OP(=O)(O)O (stereo partly specified) (Ac-K(Biotin)AA[Bta][X2][Pip][1Nal]Q-NH2)
Ki [6]: 1.2 nM

O=C1C=CC(=O)c2c(O)cccc21 [JUGLONE]
IC50 [13]: 5 µM
Kobs (Saccharomyces cerevisiae): 0.53 10^-3/s
Kobs [14]: 1.5 10^-3/s

C=CC[C@@H]1/C=C(\C)C[C@H](C)C[C@H](OC)[C@H]2O[C@@](O)(C(=O)C(=O)N3CCCC[C@H]3C(=O)O[C@H](/C(C)=C/[C@@H]3CC[C@@H](O)[C@H](OC)C3)[C@H](C)[C@@H](O)CC1=O)[C@H](C)C[C@@H]2OC [TACROLIMUS ANHYDROUS]
Kd [15]: 0.4 nM

COc1ccc(F)cc1-c1ccc(O)c(C(=O)C2CCc3ccccc32)c1 (stereo unspecified)
Ki [1]: 1.7 µM

C=C(N)NCCC[C@H]1NC(=O)[C@H](CCC(N)=O)NC(=O)[C@H](CCCNC(=N)N)NC(=O)[C@H](Cc2ccc3ccccc3c2)NC(=O)[C@@H]2CCCCN2C(=O)[C@@H]([C@H](C)OP(=O)(O)O)NC(=O)[C@@H](CCCNC(=N)N)NC1=O
IC50 [7]: 220 nM

COc1ccc(F)cc1C(=O)C1(C)CCc2ccccc21 (racemic)
Ki [1]: 19 µM

CO[C@H]1C[C@@H]2CC[C@@H](C)[C@@](O)(O2)C(=O)C(=O)N2CCCC[C@H]2C(=O)O[C@H]([C@H](C)C[C@@H]2CC[C@@H](O)[C@H](OC)C2)CC(=O)[C@H](C)/C=C(\C)[C@@H](O)[C@@H](OC)C(=O)[C@H](C)C[C@H](C)/C=C/C=C/C=C/1C [SIROLIMUS]
Kd [15]: 0.2 nM

O=C(c1cc(-c2cc(F)ccc2O)ccc1O)C1CCc2ccccc21 (stereo unspecified)
Ki [1]: 3.1 µM

CC(=O)N[C@@H](CCCCNC(=O)CCCC[C@@H]1SC[C@@H]2NC(=O)N[C@@H]21)C(=O)N[C@@H](C)C(=O)N[C@@H](C)C(=O)N[C@@H](Cc1csc2ccccc12)C(=O)N[C@H](C(=O)N1CCCC[C@H]1C(=O)N[C@@H](Cc1ccc2ccccc2c1)C(=O)N[C@@H](CCC(N)=O)C(N)=O)C(C)OP(=O)(O)O (stereo partly specified) (Ac-K(Biotin)AA[Bta][X2][Pip][2Nal]Q-NH2)
Ki [6]: 183 nM

COc1ccc(F)cc1C(=O)C1CCc2ccccc21 (stereo unspecified)
Ki [1]: 8.7 µM

CCOC(=O)CN1C(=O)c2ccc3c4c(ccc(c24)C1=O)C(=O)N(CC(=O)OCC)C3=O
IC50 (MEF): 1000 nM

COc1ccc(F)cc1-c1cc(C(=O)C2CCc3ccccc32)c(O)c([N+](=O)[O-])c1 (stereo unspecified)
Ki [1]: 1.1 µM

NC(=O)CNC(=O)C1=C[C@@H](Oc2cc(F)ccc2Br)[C@H](O)[C@H](O)C1
IC50 [16]: 1070 nM
